Reference: the NIST ThermoML archive (doi:10.1021/je050540h)

Assay: xn = mol fraction of the nth substance listed
Conditions: Liquid

C1CCCCC1 [cyclohexane] + CC(C)O
101 kPa
Conditions	mass density, 293.15 K [kg/m3]	mass density, 298.15 K [kg/m3]	mass density, 303.15 K [kg/m3]	speed of sound, 293.15 K [m/s]	speed of sound, 298.15 K [m/s]	speed of sound, 303.15 K [m/s]	viscosity, 293.15 K [mPa·s]	viscosity, 298.15 K [mPa·s]	viscosity, 303.15 K [mPa·s]
x1 = 0.0484	783.76	779.5	775.15	1160	1141	1123	2.184	1.883	1.633
x1 = 0.097	782.63	778.29	773.87	1163	1145	1126	1.988	1.722	1.504
x1 = 0.2006	780.51	776.05	771.5	1171	1152	1132	1.651	1.444	1.267
x1 = 0.3002	778.87	774.29	769.62	1180	1159	1139	1.427	1.26	1.112
x1 = 0.3977	777.63	772.95	768.19	1189	1167	1146	1.264	1.119	0.996
x1 = 0.507	776.69	771.92	767.09	1200	1178	1155	1.128	1.008	0.908
x1 = 0.6046	776.15	771.34	766.47	1211	1188	1165	1.025	0.926	0.838
x1 = 0.7058	775.92	771.11	766.23	1223	1200	1176	0.969	0.878	0.798
x1 = 0.823	776.23	771.42	766.56	1240	1216	1192	0.944	0.856	0.786
x1 = 0.9016	776.88	772.09	767.24	1254	1230	1206	0.95	0.87	0.801
x1 = 0.9521	777.52	772.74	767.92	1265	1240	1216	0.962	0.874	0.802
x1 = 1	778.62	773.92	769.19	1279	1254	1230	0.968	0.887	0.816

C1CCCCC1 [cyclohexane] + CCC(C)O
101 kPa, x1 = 1
Conditions	mass density [kg/m3]	speed of sound [m/s]	viscosity [mPa·s]
293.15 K	778.62	1279	0.968
298.15 K	773.92	1254	0.887
303.15 K	769.19	1230	0.816

C1CCCCC1 [cyclohexane] + CCCC(C)O
x1 = 1
Conditions	mass density, 293.15 K [kg/m3]	mass density, 298.15 K [kg/m3]	mass density, 303.15 K [kg/m3]	speed of sound, 293.15 K [m/s]	speed of sound, 298.15 K [m/s]	speed of sound, 303.15 K [m/s]	viscosity, 293.15 K [mPa·s]	viscosity, 298.15 K [mPa·s]	viscosity, 303.15 K [mPa·s]
7 kPa	–	–	–	1279	1254	1230	–	–	–
101 kPa	778.62	773.92	769.19	–	–	–	0.968	0.887	0.816
